The record followed here is patent US20230117034A1, “PYRAZOLOTRIAZINES” (Bayer Aktiengesellschaft, priority 2019, published 2023).

The target of one assay is T1, CDK9/CycT1 (Homo sapiens, UniProt P50750).
T1 construct: Recombinant full-length His-tagged human CDK9 and CycT1; purchased Life Technologies PV4131; host or cells: insect cells
The assay can be described thus: CDK9/CycT1 high ATP kinase assay (TR-FRET, 2 mM ATP). In kind it is biochemical. Particulars: 2 mM ATP (high ATP); median; read-out: CDK9/CyclinT1, 2 mM ATP (high ATP), IC50 (median). The gist of the method:
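Full-length His-tagged human CDK9/CycT1 (insect cell, ~0.5 μg/mL) preincubated 15 min at 22 °C with compound in Tris pH 8.0, MgCl2, DTT buffer before reaction with biotinylated peptide substrate at high ATP (2 mM).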
(In general: TR-FRET usually uses a lanthanide donor and a delayed reading to cut background.)

Assay [1] concerns CAL-120, human breast adenocarcinoma cells. The assay can be described thus: Proliferation assay CAL-120 (crystal violet, 4 days). In kind it is cell-based. Particulars: CAL-120 cells, median, read-out: Prolif-CAL-120, IC50-[mol/l] (median). Put shortly:
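Growth was measured by crystal violet staining after cells had been treated with compounds (0.01-10 µmol/L, 0.1% DMSO) for 4 days, beginning 24 h after seeding. Values were normalized to a zero-point plate and to untreated controls, and IC50 values were derived by a four-parameter fit.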

Where two headings read alike, the source gives them in different places.

T1 sequence (P50750 whole entry): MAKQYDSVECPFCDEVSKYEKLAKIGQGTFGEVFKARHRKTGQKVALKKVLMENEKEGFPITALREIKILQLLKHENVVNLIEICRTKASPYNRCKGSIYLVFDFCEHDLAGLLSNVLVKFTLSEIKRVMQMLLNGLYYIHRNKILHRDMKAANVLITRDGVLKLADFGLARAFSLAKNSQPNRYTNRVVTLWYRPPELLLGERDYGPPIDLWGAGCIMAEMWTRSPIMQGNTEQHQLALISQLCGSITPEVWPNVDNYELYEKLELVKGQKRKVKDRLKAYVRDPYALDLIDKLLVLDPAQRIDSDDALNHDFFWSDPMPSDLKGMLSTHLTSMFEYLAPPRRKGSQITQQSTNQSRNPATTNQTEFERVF
T1 sequence (O60563 whole entry partner): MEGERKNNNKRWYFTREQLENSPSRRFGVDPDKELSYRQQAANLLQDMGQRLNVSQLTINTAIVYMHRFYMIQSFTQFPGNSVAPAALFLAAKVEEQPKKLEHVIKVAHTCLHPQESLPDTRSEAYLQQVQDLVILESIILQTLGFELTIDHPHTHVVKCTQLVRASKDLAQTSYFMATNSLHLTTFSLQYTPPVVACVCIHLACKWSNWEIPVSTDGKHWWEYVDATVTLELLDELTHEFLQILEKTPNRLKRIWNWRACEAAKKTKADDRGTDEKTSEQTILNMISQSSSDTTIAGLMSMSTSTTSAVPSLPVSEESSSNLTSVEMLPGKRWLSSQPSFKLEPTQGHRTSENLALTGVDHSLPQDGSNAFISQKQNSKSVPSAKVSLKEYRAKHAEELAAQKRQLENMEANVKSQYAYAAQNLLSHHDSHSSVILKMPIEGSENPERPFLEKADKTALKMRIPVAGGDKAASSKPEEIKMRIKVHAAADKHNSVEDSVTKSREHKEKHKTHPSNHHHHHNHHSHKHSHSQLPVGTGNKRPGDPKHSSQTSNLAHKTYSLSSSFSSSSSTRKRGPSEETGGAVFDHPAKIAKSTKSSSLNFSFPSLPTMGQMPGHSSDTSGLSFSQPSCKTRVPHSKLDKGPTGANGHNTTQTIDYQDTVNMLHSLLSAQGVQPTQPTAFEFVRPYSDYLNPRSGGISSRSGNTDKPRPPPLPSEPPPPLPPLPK

As for `CN1CCN(c2nc(NCc3nc4cc(OC(F)(F)F)ccc4[nH]3)n3ncc(Br)c3n2)CC1` [Example 377, 8-bromo-2-(4-methylpiperazin-1-yl)-N-{[5-(trifluoromethoxy)-1H-benzimidazol-2-yl]methyl}pyrazolo[1,5-a][1,3,5]triazin-4-amine], the IC50 was more than 20000 nM on CDK9/CycT1 and 79.3 nM in assay [1] (Homo sapiens, CAL-120, 96 h).
Regarding `Cc1ccnc2[nH]c(CNc3nc(N4CCN(C)CC4)nc4c(C(C)C)cnn34)nc12` [Example 32, N-[(7-methyl-3H-imidazo[4,5-b]pyridin-2-yl)methyl]-2-(4-methylpiperazin-1-yl)-8-(propan-2-yl)pyrazolo[1,5-a][1,3,5]triazin-4-amine], at CDK9/CycT1, the IC50 was more than 20000 nM.
With `CN1CCC(Oc2nc(NCc3nc4ccccc4[nH]3)n3ncc(Br)c3n2)CC1` [Example 389, N-[(1H-benzimidazol-2-yl)methyl]-8-bromo-2-[(1-methylpiperidin-4-yl)oxy]pyrazolo[1,5-a][1,3,5]triazin-4-amine], the IC50 at CDK9/CycT1 is more than 20000 nM; in assay [1] (Homo sapiens, CAL-120, 96 h), 52.7 nM.
Regarding `CN(CC(C)(C)O)c1nc(NCc2nc3c(F)c(Cl)ccc3[nH]2)n2ncc(C3CC3)c2n1` [Example 387, 1-[(4-{[(5-chloro-4-fluoro-1H-benzimidazol-2-yl)methyl]amino}-8-cyclopropylpyrazolo[1,5-a][1,3,5]triazin-2-yl)(methyl)amino]-2-methylpropan-2-ol], the IC50 on CDK9/CycT1 came out at 5930 nM; in assay [1] (Homo sapiens, CAL-120, 96 h), 4.95 nM.
As to `C[C@H]1CN(C)CCN1c1nc(NCc2nc3c(F)cccc3[nH]2)n2ncc(C(F)(F)F)c2n1` [Example 388, 2-[(2S)-2,4-dimethylpiperazin-1-yl]-N-[(4-fluoro-1H-benzimidazol-2-yl)methyl]-8-(trifluoromethyl)pyrazolo[1,5-a][1,3,5]triazin-4-amine], the IC50 was more than 20000 nM on CDK9/CycT1 and 22.5 nM in assay [1] (Homo sapiens, CAL-120, 96 h).
In the case of `CC[C@H](COC)Nc1nc(NCc2nc3ccccc3[nH]2)n2ncc(Br)c2n1` [Example 369, N4-[(1H-benzimidazol-2-yl)methyl]-8-bromo-N2-[(2R)-1-methoxybutan-2-yl]pyrazolo[1,5-a][1,3,5]triazine-2,4-diamine], the IC50 on CDK9/CycT1 is more than 20000 nM; in assay [1] (Homo sapiens, CAL-120, 96 h), 140 nM.
Consider `CCNc1nc(NCc2nc(-c3ccc(C)cc3)c[nH]2)n2ncc(Br)c2n1` [Example 26, 8-bromo-N^2-ethyl-N^4-{[4-(4-methylphenyl)-1H-imidazol-2-yl]methyl}pyrazolo[1,5-a][1,3,5]triazine-2,4-diamine], for which the IC50 on CDK9/CycT1 turned out to be 8740 nM.
For `Brc1cnn2c(NCc3nc4ccccc4[nH]3)nc(N3C[C@H]4CC[C@@H]3CO4)nc12` (single isomer, unassigned; enantiomer 2) [Example 391, N-[(1H-benzimidazol-2-yl)methyl]-8-bromo-2-{[1R or S-(1R*,4R*)]-2-oxa-5-azabicyclo[2.2.2]octan-5-yl}pyrazolo[1,5-a][1,3,5]triazin-4-amine (Enantiomer 2)], the IC50 at CDK9/CycT1 is more than 20000 nM; in assay [1], 8.31 nM.
For the compound `CN1CCCN(c2nc(NCc3nc4ccccc4[nH]3)n3ncc(Br)c3n2)CC1` [Example 390, N-[(1H-benzimidazol-2-yl)methyl]-8-bromo-2-(4-methyl-1,4-diazepan-1-yl)pyrazolo[1,5-a][1,3,5]triazin-4-amine], the IC50 on CDK9/CycT1 was more than 20000 nM; in assay [1] (Homo sapiens, CAL-120, 96 h), 29.8 nM.
On the same counts, the results for `Fc1cccc2[nH]c(CNc3nc(N4CCOCC4)nc4c(Cl)cnn34)nc12` [Example 361, 8-chloro-N-[(4-fluoro-1H-benzimidazol-2-yl)methyl]-2-(morpholin-4-yl)pyrazolo[1,5-a][1,3,5]triazin-4-amine] are 13800 nM and 6.73 nM.
`CN(c1nc(NCc2nc3ccccc3[nH]2)n2ncc(Br)c2n1)[C@H]1C[C@@H](O)C1` [Example 364, cis-3-[(4-{[(1H-benzimidazol-2-yl)methyl]amino}-8-bromopyrazolo[1,5-a][1,3,5]triazin-2-yl)(methyl)amino]cyclobutan-1-ol]: the IC50 on CDK9/CycT1 is more than 20000 nM.
`Cc1cc2nc(CNc3nc(N4CCOCC4)nc4c(C5CC5)cnn34)[nH]c2cc1C` [Example 320, 8-cyclopropyl-N-[(5,6-dimethyl-1H-benzimidazol-2-yl)methyl]-2-(morpholin-4-yl)pyrazolo[1,5-a][1,3,5]triazin-4-amine]: the IC50 at CDK9/CycT1 is more than 20000 nM; in assay [1] (Homo sapiens, CAL-120, 96 h), 4.24 nM.
With `CN(CC(C)(C)O)c1nc(NCc2nc3c(F)c(F)ccc3[nH]2)n2ncc(Cl)c2n1` [Example 359, 1-[(8-chloro-4-{[(4,5-difluoro-1H-benzimidazol-2-yl)methyl]amino}pyrazolo[1,5-a][1,3,5]triazin-2-yl)(methyl)amino]-2-methylpropan-2-ol], the IC50 at CDK9/CycT1 stood at 7130 nM; in assay [1] (Homo sapiens, CAL-120, 96 h) it was 5.69 nM.
On to `FC(F)(F)c1ccc2[nH]c(CNc3nc(N4CCOCC4)nc4c(Br)cnn34)nc2c1` [Example 339, 8-bromo-2-(morpholin-4-yl)-N-{[5-(trifluoromethyl)-1H-benzimidazol-2-yl]methyl}pyrazolo[1,5-a][1,3,5]triazin-4-amine], for which the IC50 on CDK9/CycT1 amounted to 13800 nM; in assay [1] (Homo sapiens, CAL-120, 96 h), 4.79 nM.
`CN(CC(C)(C)O)c1nc(NCc2nc3c(F)cccc3[nH]2)n2ncc(Cl)c2n1` [Example 366, 1-[(8-chloro-4-{[(4-fluoro-1H-benzimidazol-2-yl)methyl]amino}pyrazolo[1,5-a][1,3,5]triazin-2-yl)(methyl)amino]-2-methylpropan-2-ol]: the IC50 was more than 20000 nM at CDK9/CycT1 and 31.3 nM in assay [1] (Homo sapiens, CAL-120, 96 h).
As for `Brc1cnn2c(NCc3nc4ccccc4[nH]3)nc(N3CC4CCC3CO4)nc12` (centres unmarked) [Example 352, N-[(1H-benzimidazol-2-yl)methyl]-8-bromo-2-(2-oxa-5-azabicyclo[2.2.2]octan-5-yl)pyrazolo[1,5-a][1,3,5]triazin-4-amine], the IC50 turned out to be 16800 nM on CDK9/CycT1 and 8.05 nM in assay [1] (Homo sapiens, CAL-120, 96 h).
Regarding `CN1CCN(c2nc(NCc3nc4c(F)cccc4[nH]3)n3ncc(Cl)c3n2)CC1.O=CO` [Example 362, formic acid 8-chloro-N-[(4-fluoro-1H-benzimidazol-2-yl)methyl]-2-(4-methylpiperazin-1-yl)pyrazolo[1,5-a][1,3,5]triazin-4-amine], the IC50 on CDK9/CycT1 was more than 20000 nM; in assay [1] (Homo sapiens, CAL-120, 96 h), 8.15 nM.
Turning to `Brc1cnn2c(NCc3nc4ccccc4[nH]3)nc(N3C[C@H]4CC[C@@H]3CO4)nc12` (single isomer, unassigned) [Example 383, N-[(1H-benzimidazol-2-yl)methyl]-8-bromo-2-{[1R or S-(1R*,4R*)]-2-oxa-5-azabicyclo[2.2.2]octan-5-yl}pyrazolo[1,5-a][1,3,5]triazin-4-amine], the IC50 is more than 20000 nM on CDK9/CycT1 and 11.4 nM in assay [1] (Homo sapiens, CAL-120, 96 h).
As to `CN(CC(C)(C)O)c1nc(NCc2nc3cc(OC(F)(F)F)ccc3[nH]2)n2ncc(Br)c2n1` [Example 378, 1-{[8-bromo-4-({[5-(trifluoromethoxy)-1H-benzimidazol-2-yl]methyl}amino)pyrazolo[1,5-a][1,3,5]triazin-2-yl](methyl)amino}-2-methylpropan-2-ol], the IC50 was found to be 12700 nM on CDK9/CycT1 and 41.5 nM in assay [1] (Homo sapiens, CAL-120, 96 h).
The matching figures for `CC[C@H](CO)Nc1nc(NCc2nc3ccccc3[nH]2)n2ncc(Br)c2n1` [Example 368, (2R)-2-[(4-{[(1H-benzimidazol-2-yl)methyl]amino}-8-bromopyrazolo[1,5-a][1,3,5]triazin-2-yl)amino]butan-1-ol]: more than 20000 nM and 94.9 nM.
The matching figures for `Clc1cc2nc(CNc3nc(N4CC5CCC(C4)N5)nc4c(C5CC5)cnn34)[nH]c2cc1Cl` [Example 324, 8-cyclopropyl-2-(3,8-diazabicyclo[3.2.1]octan-3-yl)-N-[(5,6-dichloro-1H-benzimidazol-2-yl)methyl]pyrazolo[1,5-a][1,3,5]triazin-4-amine]: 12300 nM and 1.17 nM.
As for `CN(c1nc(NCc2nc3ccccc3[nH]2)n2ncc(Br)c2n1)[C@H]1C[C@H](O)C1` [Example 365, trans-3-[(4-{[(1H-benzimidazol-2-yl)methyl]amino}-8-bromopyrazolo[1,5-a][1,3,5]triazin-2-yl)(methyl)amino]cyclobutan-1-ol], the IC50 is more than 20000 nM at CDK9/CycT1 and 70.2 nM in assay [1] (Homo sapiens, CAL-120, 96 h).
Regarding `FC(F)(F)c1ccc2[nH]c(CNc3nc(N4CCOCC4)nc4c(C5CC5)cnn34)nc2c1` [Example 322, 8-cyclopropyl-2-(morpholin-4-yl)-N-{[5-(trifluoromethyl)-1H-benzimidazol-2-yl]methyl}pyrazolo[1,5-a][1,3,5]triazin-4-amine], the IC50 on CDK9/CycT1 is more than 20000 nM; in assay [1] (Homo sapiens, CAL-120, 96 h) it was 7.97 nM.
For `Fc1cc2nc(CNc3nc(N4C[C@H]5CC[C@@H](C4)N5)nc4c(C5CC5)cnn34)[nH]c2cc1Cl` [Example 328, N-[(6-chloro-5-fluoro-1H-benzimidazol-2-yl)methyl]-8-cyclopropyl-2-[(1R,5S)-3,8-diazabicyclo[3.2.1]octan-3-yl]pyrazolo[1,5-a][1,3,5]triazin-4-amine], the IC50 at CDK9/CycT1 was 15000 nM; in assay [1] (Homo sapiens, CAL-120, 96 h), 0.901 nM.
On the same counts, the results for `Clc1cc2nc(CNc3nc(N4CCOCC4)nc4c(Br)cnn34)[nH]c2cc1Cl` [Example 329, 8-bromo-N-[(5,6-dichloro-1H-benzimidazol-2-yl)methyl]-2-(morpholin-4-yl)pyrazolo[1,5-a][1,3,5]triazin-4-amine] are 13800 nM and 6.11 nM.
